The target of one assay is T1, ALK (Homo sapiens, UniProt Q9UM73).
T1 construct: host or cells: baculovirus expression system
Briefly: ALK Kinase Assay (ELISA/TRF, PLC-γ substrate). It counts as biochemical. As to conditions: ALK kinase inhibition, 1 μM ATP; read-out: ALK Potency. In outline:
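First, plates are coated with substrate (phospholipase C-γ, 10 μg/mL, TBS). Next, 30 ng/ml ALK initiates phosphorylation for 15 min at 37° C. Then Eu-N1 PT66 antibody is added for detection, and a nonlinear dose-response fit of percent inhibition yields IC50.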
(In an ELISA, binding on a coated surface is turned into a signal by an enzyme label.)

In a further assay the target is T2, JAK2 (Homo sapiens, UniProt O60674).
T2 construct: host or cells: baculovirus expression system
T2 sequence (O60674 whole entry): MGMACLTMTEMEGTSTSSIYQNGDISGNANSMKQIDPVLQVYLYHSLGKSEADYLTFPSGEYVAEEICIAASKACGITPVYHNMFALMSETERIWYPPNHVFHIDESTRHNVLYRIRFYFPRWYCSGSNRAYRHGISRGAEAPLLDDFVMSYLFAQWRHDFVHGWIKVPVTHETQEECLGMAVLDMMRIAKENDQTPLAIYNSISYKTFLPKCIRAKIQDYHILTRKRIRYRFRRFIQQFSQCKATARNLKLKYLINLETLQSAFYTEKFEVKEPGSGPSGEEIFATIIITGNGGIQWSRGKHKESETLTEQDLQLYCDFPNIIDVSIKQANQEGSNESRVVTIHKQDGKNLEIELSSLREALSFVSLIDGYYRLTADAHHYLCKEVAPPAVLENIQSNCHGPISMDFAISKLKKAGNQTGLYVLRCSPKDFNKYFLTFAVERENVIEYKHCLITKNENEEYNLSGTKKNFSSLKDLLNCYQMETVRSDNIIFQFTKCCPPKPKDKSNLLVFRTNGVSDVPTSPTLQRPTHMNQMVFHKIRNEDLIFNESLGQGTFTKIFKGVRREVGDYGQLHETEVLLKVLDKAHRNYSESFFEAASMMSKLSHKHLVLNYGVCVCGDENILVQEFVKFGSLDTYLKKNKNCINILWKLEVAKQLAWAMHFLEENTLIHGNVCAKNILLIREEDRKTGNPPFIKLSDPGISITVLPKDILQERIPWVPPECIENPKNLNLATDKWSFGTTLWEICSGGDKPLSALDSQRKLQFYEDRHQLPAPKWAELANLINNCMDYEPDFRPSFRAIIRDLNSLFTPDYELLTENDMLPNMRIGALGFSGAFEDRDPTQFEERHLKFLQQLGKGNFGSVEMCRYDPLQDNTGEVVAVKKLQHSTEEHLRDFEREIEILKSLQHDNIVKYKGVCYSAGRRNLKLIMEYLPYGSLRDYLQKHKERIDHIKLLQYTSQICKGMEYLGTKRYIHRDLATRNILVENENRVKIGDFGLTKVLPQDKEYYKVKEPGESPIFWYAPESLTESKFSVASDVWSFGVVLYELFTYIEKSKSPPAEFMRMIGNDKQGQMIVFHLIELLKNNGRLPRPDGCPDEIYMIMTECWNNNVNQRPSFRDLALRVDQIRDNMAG
Briefly: Recombinant Human JAK2 Kinase Assay (TRF). It counts as biochemical. To be noted: JAK2 kinase inhibition, 0.2 μM ATP; read-out: JAK2 Potency. In outline: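 Baculovirus-expressed JAK2 (15 ng/ml) phosphorylated a biotinylated 15-mer peptide captured on Neutravidin, in 20 mM HEPES pH 7.2, 0.2 μM ATP, 1 mM MnCl2, 0.1% BSA, 2.5% DMSO final, 20 min at room temperature. Phosphoproduct detected by time-resolved fluorescence with Eu-N1-labelled PY100 antibody.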

Molecules are shown by their SMILES. Where only a bound is given, the exact number is not on record here.

T1 sequence (Q9UM73 19-1620): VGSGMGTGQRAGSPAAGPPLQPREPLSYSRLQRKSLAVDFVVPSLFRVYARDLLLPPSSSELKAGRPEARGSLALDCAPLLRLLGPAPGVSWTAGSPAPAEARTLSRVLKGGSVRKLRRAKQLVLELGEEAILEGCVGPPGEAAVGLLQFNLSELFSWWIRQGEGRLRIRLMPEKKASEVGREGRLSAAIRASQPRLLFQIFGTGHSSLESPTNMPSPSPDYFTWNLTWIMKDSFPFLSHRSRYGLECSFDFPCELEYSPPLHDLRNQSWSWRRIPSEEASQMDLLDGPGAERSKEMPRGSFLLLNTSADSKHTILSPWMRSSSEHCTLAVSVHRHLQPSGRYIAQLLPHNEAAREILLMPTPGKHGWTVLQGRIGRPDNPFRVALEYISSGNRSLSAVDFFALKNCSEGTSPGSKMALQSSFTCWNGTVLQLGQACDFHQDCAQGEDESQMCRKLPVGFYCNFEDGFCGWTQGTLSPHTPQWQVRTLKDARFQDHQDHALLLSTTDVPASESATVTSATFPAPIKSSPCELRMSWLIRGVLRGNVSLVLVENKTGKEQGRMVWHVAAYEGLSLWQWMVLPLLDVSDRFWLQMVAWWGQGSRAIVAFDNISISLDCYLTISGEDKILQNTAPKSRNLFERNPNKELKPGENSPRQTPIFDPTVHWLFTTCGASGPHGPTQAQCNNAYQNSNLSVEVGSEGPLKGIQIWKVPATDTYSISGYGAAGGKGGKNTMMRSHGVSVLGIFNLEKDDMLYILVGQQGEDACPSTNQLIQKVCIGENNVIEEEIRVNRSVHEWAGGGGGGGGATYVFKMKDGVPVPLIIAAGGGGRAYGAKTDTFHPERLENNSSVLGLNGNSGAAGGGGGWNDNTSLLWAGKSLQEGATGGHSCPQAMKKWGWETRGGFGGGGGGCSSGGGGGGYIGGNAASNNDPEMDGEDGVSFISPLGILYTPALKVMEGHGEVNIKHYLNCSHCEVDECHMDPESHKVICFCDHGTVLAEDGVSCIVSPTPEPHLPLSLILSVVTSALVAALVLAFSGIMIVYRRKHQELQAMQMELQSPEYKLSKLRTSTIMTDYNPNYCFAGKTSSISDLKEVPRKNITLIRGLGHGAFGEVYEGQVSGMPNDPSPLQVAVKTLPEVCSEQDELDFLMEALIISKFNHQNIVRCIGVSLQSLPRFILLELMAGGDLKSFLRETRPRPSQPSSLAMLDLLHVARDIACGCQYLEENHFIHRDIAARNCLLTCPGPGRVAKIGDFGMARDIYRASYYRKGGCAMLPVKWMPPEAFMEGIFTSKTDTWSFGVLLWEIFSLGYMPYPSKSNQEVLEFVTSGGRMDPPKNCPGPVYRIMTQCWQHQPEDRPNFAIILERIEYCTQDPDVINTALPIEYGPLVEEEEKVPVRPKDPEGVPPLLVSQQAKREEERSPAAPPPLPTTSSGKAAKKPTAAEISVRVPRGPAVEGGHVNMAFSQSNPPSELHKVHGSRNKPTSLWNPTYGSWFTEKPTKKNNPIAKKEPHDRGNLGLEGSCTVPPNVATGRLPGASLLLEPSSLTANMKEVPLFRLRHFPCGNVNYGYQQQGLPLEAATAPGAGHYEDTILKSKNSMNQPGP

Turning to `CON=C1CCC(c2ccc(Nc3ncc4ccc(-c5cccc(S(=O)(=O)NC(C)(C)C)c5)n4n3)cc2)CC1` (stereo not shown) [Example 571, N-tert-Butyl-3-{2-[4-(4-methoxyimino-cyclohexyl)-phenylamino]-pyrrolo[2,1-f][1,2,4]triazin-7-yl}-benzenesulfonamide], the IC50 is over 10000 nM on ALK and under 100 nM on JAK2.

As to `Cc1nc2ccc(Nc3ncc4ccc(-c5cccc(S(=O)(=O)NC(C)(C)C)c5)n4n3)cc2s1` [Example 572, N-tert-Butyl-3-[2-(2-methyl-benzothiazol-6-ylamino)-pyrrolo[2,1-f][1,2,4]triazin-7-yl]-benzenesulfonamide], the figures for the IC50 at ALK and on JAK2 were over 10000 nM and under 100 nM, respectively.

Turning to `CC(C)(C)NS(=O)(=O)c1cccc(-c2ccc3cnc(Nc4ccc5ncsc5c4)nn23)c1` [Example 573, 3-[2-(Benzothiazol-6-ylamino)-pyrrolo[2,1-f][1,2,4]triazin-7-yl]-N-tert-butyl-benzenesulfonamide], the IC50 on ALK is over 10000 nM; at JAK2, under 100 nM.

As to `Cc1nc2cc(Nc3ncc4ccc(-c5cccc(S(=O)(=O)NC(C)(C)C)c5)n4n3)ccc2s1` [Example 574, N-tert-Butyl-3-[2-(2-methyl-benzothiazol-5-ylamino)-pyrrolo[2,1-f][1,2,4]triazin-7-yl]-benzenesulfonamide], the IC50 on ALK is 1000 to 10000 nM; at JAK2, under 100 nM.

For `CC(C)(C)NS(=O)(=O)c1cccc(-c2ccc3cnc(Nc4ccc5scnc5c4)nn23)c1` [Example 575, 3-[2-(Benzothiazol-5-ylamino)-pyrrolo[2,1-f][1,2,4]triazin-7-yl]-N-tert-butyl-benzenesulfonamide], the IC50 was 1000 to 10000 nM on ALK and under 100 nM on JAK2.

For the compound `CON=C1CCC(c2ccc(Nc3ncc4ccc(-c5cccc(S(=O)(=O)C(C)C)c5)n4n3)cc2)CC1` (stereo not shown) [Example 576, 4-(4-{7-[3-(Propane-2-sulfonyl)-phenyl]-pyrrolo[2,1-f][1,2,4]triazin-2-ylamino}-phenyl)-cyclohexanone O-methyl-oxime], the IC50 on ALK was 1000 to 10000 nM; at JAK2, under 100 nM.

Consider `CC(C)(C)NS(=O)(=O)c1cccc(-c2ccc3cnc(Nc4ccc(C5CN(CC(N)=O)C5)cc4)nn23)c1` [Example 577, 2-(3-{4-[7-(3-tert-Butylsulfamoyl-phenyl)-pyrrolo[2,1-f][1,2,4]triazin-2-ylamino]-phenyl}-azetidin-1-yl)-acetamide], for which the IC50 at ALK is 100 to 1000 nM; on JAK2, under 100 nM.

Take `CS(=O)(=O)c1cccc(-c2ccc3cnc(Nc4ccc(C5CN(CC(N)=O)C5)cc4)nn23)c1` [Example 578, 2-(3-{4-[7-(3-Methanesulfonyl-phenyl)-pyrrolo[2,1-f][1,2,4]triazin-2-ylamino]-phenyl}-azetidin-1-yl)-acetamide]: the IC50 on ALK is 100 to 1000 nM; at JAK2 it was under 100 nM.

For `COc1cc(-c2ccc3cnc(Nc4ccc(C5CCN(CC(N)=O)CC5)cc4)nn23)c(OC)nn1` [Example 580, 2-(4-{4-[7-(3,6-Dimethoxy-pyridazin-4-yl)-pyrrolo[2,1-f][1,2,4]triazin-2-ylamino]-phenyl}-piperidin-1-yl)-acetamide], the IC50 is 100 to 1000 nM at ALK and under 100 nM at JAK2.

Turning to `COc1cc(-c2ccc3cnc(Nc4ccc(C5CN(CC(N)=O)C5)cc4)nn23)c(OC)nn1` [Example 581, 2-(3-{4-[7-(3,6-Dimethoxy-pyridazin-4-yl)-pyrrolo[2,1-f][1,2,4]triazin-2-ylamino]-phenyl}-azetidin-1-yl)-acetamide], the IC50 at ALK was 100 to 1000 nM; on JAK2, under 100 nM.

Turning to `CS(=O)(=O)N1Cc2cccc(-c3ccc4cnc(Nc5ccc(C6CN(CC(N)=O)C6)cc5)nn34)c2C1` [Example 582, 2-(3-{4-[7-(2-Methanesulfonyl-2,3-dihydro-1H-isoindol-4-yl)-pyrrolo[2,1-f][1,2,4]triazin-2-ylamino]-phenyl}-azetidin-1-yl)-acetamide], the IC50 was 1000 to 10000 nM at ALK and under 100 nM on JAK2.
